Assay results: ChEMBL document CHEMBL5346874, “New antiplasmodial 4-amino-thieno[3,2-d]pyrimidines with improved intestinal permeability and microsomal stability” (Eur J Med Chem, 2023)

Key:
Plasmodium falciparum = assay: Antiplasmodial activity against blood stage Plasmodium falciparum K1 assessed as reduction in parasite growth incubated for 72 hrs by SYBR Green I fluorescence based method; type: functional, organism-based
Plasmodium berghei = assay: Antimalarial activity against hepatic stage of Plasmodium berghei sporozoites GFP ANKA incubated for 3 hrs followed by replacement with fresh media for every 24 hrs by immunostaining analysis; type: functional, organism-based
[1] = (§1) Cytotoxicity against cynomolgus monkey Primary hepatocyte assessed as cell viability; type: toxicity, cell-based, Macaca fascicularis; details: primary hepatocytes
[2] = Selectivity index, ratio of CC50 for against Macaca fascicularis Primary hepatocyte to EC50 for hepatic stage of Plasmodium berghei sporozoites GFP ANKA; type: toxicity; details: cynomolgus monkey, primary hepatocytes; read-out: Ratio CC50/EC50
[3] = Effective permeability of compound at pH 6.0 incubated for 4 hrs by PAMPA-GIT assay; type: ADME; details: read-out: Peff
[4] = Effective permeability of compound at pH 7.4 incubated for 4 hrs by PAMPA-GIT assay; type: ADME; details: read-out: Peff
[5] = molecular target: Voltage-gated inwardly rectifying potassium channel KCNH2 (Homo sapiens, UniProt Q12809); assay: Inhibition of human ERG incubated for 4 hrs by fluorescence polarization assay; type: toxicity
Chain of Voltage-gated inwardly rectifying potassium channel KCNH2 (Q12809 whole entry): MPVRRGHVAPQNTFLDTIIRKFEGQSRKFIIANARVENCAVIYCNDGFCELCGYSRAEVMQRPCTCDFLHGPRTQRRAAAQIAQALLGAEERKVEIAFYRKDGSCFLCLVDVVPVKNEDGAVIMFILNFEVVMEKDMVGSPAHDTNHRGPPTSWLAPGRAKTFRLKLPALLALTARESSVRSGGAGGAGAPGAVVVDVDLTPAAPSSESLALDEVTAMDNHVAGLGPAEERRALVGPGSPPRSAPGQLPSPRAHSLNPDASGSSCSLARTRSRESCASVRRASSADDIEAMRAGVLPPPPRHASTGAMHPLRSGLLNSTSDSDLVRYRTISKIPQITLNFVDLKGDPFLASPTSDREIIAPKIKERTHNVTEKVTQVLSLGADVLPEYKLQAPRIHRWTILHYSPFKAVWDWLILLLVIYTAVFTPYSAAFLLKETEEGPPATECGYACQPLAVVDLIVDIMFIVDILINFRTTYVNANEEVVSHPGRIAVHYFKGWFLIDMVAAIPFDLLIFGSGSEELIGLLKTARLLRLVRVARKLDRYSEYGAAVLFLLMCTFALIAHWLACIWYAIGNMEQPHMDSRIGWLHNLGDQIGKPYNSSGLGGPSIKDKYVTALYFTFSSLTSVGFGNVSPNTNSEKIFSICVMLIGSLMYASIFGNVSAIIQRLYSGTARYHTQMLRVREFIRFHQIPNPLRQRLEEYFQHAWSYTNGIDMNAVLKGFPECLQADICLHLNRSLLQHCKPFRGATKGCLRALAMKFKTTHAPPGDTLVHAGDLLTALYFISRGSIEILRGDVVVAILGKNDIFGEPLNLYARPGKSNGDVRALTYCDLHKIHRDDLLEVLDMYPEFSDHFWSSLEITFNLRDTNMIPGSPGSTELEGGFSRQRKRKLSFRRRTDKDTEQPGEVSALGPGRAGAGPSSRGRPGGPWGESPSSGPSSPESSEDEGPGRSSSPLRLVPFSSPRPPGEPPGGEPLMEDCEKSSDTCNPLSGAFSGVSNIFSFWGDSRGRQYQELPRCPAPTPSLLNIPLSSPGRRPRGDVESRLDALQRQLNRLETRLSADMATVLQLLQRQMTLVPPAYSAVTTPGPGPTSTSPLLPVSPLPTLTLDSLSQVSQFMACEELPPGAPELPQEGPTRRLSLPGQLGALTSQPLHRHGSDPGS

Hepatocyte = assay: as §1; type: toxicity, cell-based, Macaca fascicularis; details: hepatocytes
[6] = Metabolic stability in CD-1 mouse liver microsomes assessed as intrinsic clearance at pH 7.4 measured upto 40 mins in presence of NADP; type: ADME, Microsome; details: read-out: CLH
[7] = Metabolic stability in CD-1 mouse liver microsomes assessed as half life at pH 7.4 measured upto 40 mins in presence of NADP; type: ADME, Microsome
[8] = Effective permeability of compound at pH 5 incubated for 4 hrs by PAMPA-GIT assay; type: ADME; details: read-out: Peff
[9] = Chromatographic hydrophobicity index, log D of the compound at pH 7.4 by HPLC analysis; type: physicochemical
[10] = Solubility of the compound in PBS buffer at 1 mg incubated for 10 mins by HPLC analysis; type: physicochemical
[11] = Plasmodium falciparum, K1, 72 h

Row | Compound | EC50 (Plasmodium falciparum; [11]) [µM] | EC50 (Plasmodium berghei; Plasmodium berghei, GFP ANKA) [µM] | CC50 [1] [µM] | selectivity ratio [2] | further results
1 | C[C@H]1c2cccc(O)c2C(=O)C2=C(O)[C@]3(O)C(=O)C(C(N)=O)=C(O)[C@@H](N(C)C)[C@@H]3[C@@H](O)[C@@H]21 [DOXYCYCLINE] | 5 | – | – | – | –
2 | Cc1ccc(-c2cc3nc(NC(C)(C)C)nc(N4CCC(NCc5ccccc5)CC4)c3s2)cc1 | 0.7 | 16.1 | 43.6 | 2.7 | –
3 | Cc1ccc(-c2cc3nc(NC(C)(C)C)nc(N4CCC(NCc5ccc(Cl)cc5)CC4)c3s2)cc1 | 1 | 14.2 | 36.1 | 2.5 | –
4 | Cc1ccc(-c2cc3nc(NC(C)(C)C)nc(N4CCCC4)c3s2)cc1 | 0.9 | 14.3 | 17.5 | 1.2 | –
5 | Cc1ccc(-c2cc3nc(NC(C)(C)C)nc(NCCN(C)C)c3s2)cc1.Cl.Cl | – | – | – | – | Papp at 4 h [3]: 41.1 ×10⁻⁶ cm/s; Papp at 4 h [4]: 64.9 ×10⁻⁶ cm/s; EC50 (Plasmodium berghei): 14.2 µM; IC50 [5]: 3.4 µM; CC50 (Hepatocyte): 32.5 µM; microsomal CLint [6]: 64 µL/min/mg; half-life [7]: 37 min; Papp at 4 h [8]: 43 ×10⁻⁶ cm/s; chromatographic logD [9]: 4.5; solubility at 10 min [10]: 1640 µM; EC50 (Plasmodium falciparum): 0.4 µM
6 | Cc1ccc(-c2cc3nc(NC(C)(C)C)nc(N4CCOCC4)c3s2)cc1 | 1.6 | – | – | – | –
7 | Cc1ccc(-c2cc3nc(NC(C)(C)C)nc(N4CCCCC4)c3s2)cc1 | 1.2 | – | – | – | –
8 | Cc1ccc(-c2cc3nc(NC(C)(C)C)nc(NC4CCCC4)c3s2)cc1 | 1.3 | – | – | – | –
9 | Cc1ccc(-c2cc3nc(NC(C)(C)C)nc(N4CCC4)c3s2)cc1 | 0.7 | 15.1 | 25.8 | 1.7 | –
10 | Cc1ccc(-c2cc3nc(NC(C)(C)C)[nH]c(=O)c3s2)cc1 | 0.2 | 24.3 | > 200 | > 8.2 | –
11 | COc1ccc(CNC2CCN(c3nc(NC(C)(C)C)nc4cc(-c5ccc(C)cc5)sc34)CC2)cc1 | 0.5 | 14 | 28.6 | 2 | –
12 | CCN(CC)CCCNc1nc(NC(C)(C)C)nc2cc(-c3ccc(C)cc3)sc12.Cl.Cl | – | – | – | – | Papp at 4 h [3]: 46.6 ×10⁻⁶ cm/s; Papp at 4 h [4]: 63.1 ×10⁻⁶ cm/s; EC50 (Plasmodium berghei): 12.3 µM; IC50 [5]: 1.41 µM; CC50 (Hepatocyte): 27.6 µM; microsomal CLint [6]: 61 µL/min/mg; half-life [7]: 37 min; Papp at 4 h [8]: 48.9 ×10⁻⁶ cm/s; chromatographic logD [9]: 4.23; solubility at 10 min [10]: 1400 µM
13 | Cc1ccc(-c2cc3nc(NC(C)(C)C)nc(N4CCC(NCc5ccc([N+](=O)[O-])cc5)CC4)c3s2)cc1 | 0.7 | 7.3 | 15.8 | 2.2 | –
14 | CCN(CC)CCCNc1nc(NC(C)(C)C)nc2cc(-c3ccc(C)cc3)sc12 | 0.2 | 11.5 | 25.8 | 2.2 | –
15 | Cc1ccc(-c2cc3nc(NC(C)(C)C)nc(N4CCC(NCc5cccc(C(F)(F)F)c5)CC4)c3s2)cc1 | 1.3 | – | – | – | –
16 | Cc1ccc(-c2cc3nc(NC(C)(C)C)nc(NC4CCC4)c3s2)cc1 | 0.9 | 6.5 | 8.8 | 1.3 | –
17 | Cc1ccc(CSc2cnc(NC(C)(C)C)nc2N2CCC(NCc3cccc(Cl)c3)CC2)cc1 | 1.2 | – | – | – | –
18 | Cc1ccc(-c2cc3nc(NC(C)(C)C)nc(N4CCNCC4)c3s2)cc1 | 1.6 | – | – | – | –

Row | Compound | EC50 (Plasmodium falciparum; [11]) [µM] | EC50 (Plasmodium berghei; Plasmodium berghei, GFP ANKA) [µM] | CC50 [1] [µM] | selectivity ratio [2] | further results
19 | Cc1ccc(-c2cc3nc(NC(C)(C)C)nc(NCCCN(C)C)c3s2)cc1.Cl.Cl | – | – | – | – | Papp at 4 h [3]: 47.8 ×10⁻⁶ cm/s; Papp at 4 h [4]: 67.3 ×10⁻⁶ cm/s; EC50 (Plasmodium berghei): 14.4 µM; IC50 [5]: > 100 µM; CC50 (Hepatocyte): 35.5 µM; microsomal CLint [6]: 33 µL/min/mg; half-life [7]: > 40 min; Papp at 4 h [8]: 36.2 ×10⁻⁶ cm/s; chromatographic logD [9]: 4.29; solubility at 10 min [10]: 1990 µM; EC50 (Plasmodium falciparum): 0.2 µM
20 | Cc1ccc(-c2cc3nc(NC(C)(C)C)nc(NC4CC4)c3s2)cc1 | 1.1 | – | – | – | –
21 | Cc1ccc(-c2cc3nc(NC(C)(C)C)nc(N4CCC(C)CC4)c3s2)cc1 | 0.7 | 35.3 | 52.5 | 1.5 | –
22 | Cc1ccc(-c2cc3nc(NC(C)(C)C)nc(NCCCN(C)C)c3s2)cc1 | 0.3 | 15.3 | – | > 6.5 | CC50 (Hepatocyte): > 100 µM
23 | Cc1ccc(-c2cc3nc(NC(C)(C)C)[nH]c(=O)c3s2)cc1.Cl | – | – | – | – | Papp at 4 h [4]: 0.46 ×10⁻⁶ cm/s; microsomal CLint [6]: 240 µL/min/mg; half-life [7]: 11 min; chromatographic logD [9]: 4.1; solubility at 10 min [10]: 7.92 µM
24 | CCN(CC)CCNc1nc(NC(C)(C)C)nc2cc(-c3ccc(C)cc3)sc12.Cl.Cl | – | – | – | – | Papp at 4 h [3]: 52.1 ×10⁻⁶ cm/s; Papp at 4 h [4]: 73.9 ×10⁻⁶ cm/s; EC50 (Plasmodium berghei): 14.4 µM; IC50 [5]: 1.07 µM; CC50 (Hepatocyte): 59.1 µM; microsomal CLint [6]: 63 µL/min/mg; half-life [7]: 37 min; Papp at 4 h [8]: 51.2 ×10⁻⁶ cm/s; chromatographic logD [9]: 4.81; solubility at 10 min [10]: 1140 µM
25 | CCN(CC)CCCC(C)Nc1ccnc2cc(Cl)ccc12 (stereo not given) [CHLOROQUINE] | 0.8 | – | – | – | –
26 | Cc1ccc(-c2cc3nc(NC(C)(C)C)nc(N4CCSCC4)c3s2)cc1 | 4.9 | – | – | – | –
27 | Cc1ccc(-c2cc3nc(NC(C)(C)C)nc(N4CCC(NC(=O)OC(C)(C)C)CC4)c3s2)cc1 | 2.1 | – | – | – | –
28 | Cc1ccc(-c2cc3nc(NC(C)(C)C)nc(N4CCC(NCc5ccc(C(F)(F)F)cc5)CC4)c3s2)cc1 | 1.7 | – | – | – | –
29 | Cc1ccc(-c2cc3nc(NC(C)(C)C)nc(NCCN(C)C)c3s2)cc1 | 0.3 | 13.8 | – | 1 | CC50 (Hepatocyte): 14 µM
30 | CCN(CC)CCNc1nc(NC(C)(C)C)nc2cc(-c3ccc(C)cc3)sc12 | 0.3 | 14.6 | 32.6 | 2.2 | –
31 | Cc1ccc(-c2cc3nc(NC(C)(C)C)nc(N4CCC(NCc5ccc(Br)cc5)CC4)c3s2)cc1 | 0.7 | 13.1 | 20.7 | 1.6 | –
32 | Cc1ccc(-c2cc3nc(NC(C)(C)C)nc(N4CCN(C)CC4)c3s2)cc1 | 1.2 | – | – | – | –
33 | Cc1ccc(-c2cc3nc(NC(C)(C)C)nc(N4CCC(N)CC4)c3s2)cc1 | 1 | 31.4 | 31.6 | 1 | –
34 | Cc1ccc(-c2cc3nc(NC(C)(C)C)nc(NC4CCCCC4)c3s2)cc1 | 2.5 | – | – | – | –
35 | Cc1ccc(CNC2CCN(c3nc(NC(C)(C)C)nc4cc(-c5ccc(C)cc5)sc34)CC2)cc1 | 0.7 | 15.4 | 35.5 | 2.3 | –
